Values of other authors, collected in patent EP2361606A2, “Oral and tooth care and cleaning agents with ethyl lauroyl arginate” (Henkel AG & Co. KGaA, priority 2010, dated 2011).
Where two headings read alike, the source gives them in different places. Blank lines part the entries; values can stand above or below the substance they belong to.

[1] = in water, temperature not given, bound that defines the group of soluble inorganic zinc salts
[2] = in water, 20°C, bound that defines the group of not soluble / soluble zinc salts

Substance: Zinkhydroxycarbonat
Löslichkeit (result in words, 20°C): Fast unlöslich (20°C)

Substance: Zinksalz der p-Toluolsulfonsäure
Löslichkeit [2]: > 100 mg/L

Substance: Zinktartrat
Löslichkeit [2]: < 100 mg/L

Substance: Zinkstearat
Löslichkeit (20°C): 0,9 mg/I (20°C) | Löslichkeit [2]: < 100 mg/L

Substance: Zinkbenzoat
Löslichkeit [2]: > 100 mg/L

Substance: Zinklactat
Löslichkeit [2]: > 100 mg/L

Substance: Zinkoleat
Löslichkeit [2]: < 100 mg/L

Substance: Zinknitrat Hexahydrat
Löslichkeit (20°C): 1843 g/I (20°C)

Substance: Zinkoxid
Löslichkeit [2]: < 100 mg/L | Löslichkeit (result in words, temperature not given): Unlöslich

Substance: Zinkchlorid
Löslichkeit (25°C): 4320 g/I (25°C) | Löslichkeit [1]: > 100 mg/L

Substance: Zinkcitrat
Löslichkeit [2]: < 100 mg/L

Substance: Zinnlaureat
Löslichkeit [2]: < 100 mg/L

Substance: Zinkiodid
Löslichkeit (20°C): 4500 g/I (20°C) | Löslichkeit [1]: > 100 mg/L

Substance: Zinknitrat
Löslichkeit [1]: > 100 mg/L

Substance: Zinkacetat
Löslichkeit [2]: > 100 mg/L

Next, values leading:

Löslichkeit (25°C): 820 g/I (25°C) | Löslichkeit [1]: > 100 mg/L
Substance: Zinkbromid

Löslichkeit [1]: > 100 mg/L
Substance: Zinksulfat

Löslichkeit (20°C): ∼350 g/I (20°C)
Substance: Zinksulfat-Monohydrat

Löslichkeit (result in words, 20°C): Leicht löslich (20°C)
Substance: Zinknitrat-Tetrahydrat

Löslichkeit [2]: > 100 mg/L
Substance: Zinkformiat

Löslichkeit (20°C): 960 g/I (20°C)
Substance: Zinksulfat-Heptahydat

Löslichkeit (20°C): 430 g/I (20°C)
Substance: Zinkacetat-Dihydrat

Löslichkeit [2]: < 100 mg/L
Substance: Zinkoxalat

Löslichkeit [2]: > 100 mg/L
Substance: Zinkvalerat

Löslichkeit (20°C): 100 g/I (20°C) | Löslichkeit [2]: > 100 mg/L
Substance: Zinkgluconat
